Source: US20240299499A1, “Therapeutic Peptide Formulations” (Eli Lilly and Company, priority 2020, published 2024)
≈ marks a conversion by molar mass, not a printed value. Where two headings read alike, the source gives them in different places.

Columns and labels:
Format in all cases: physicochemical
[1] = Solubility of Compound 1 at 25° C. between pH 5.0 and pH 7.0 (UV-Vis at 280 nm)
Protocol: All solutions comprised 10 mM tris (1.21 g/L) and 0.05% EDTA (0.5 g/L). The solution pH was titrated using either 1N hydrochloric acid or concentrated tris base stock solution.
The concentration of Compound 1 was measured at 280 nm by a UV-Vis spectrophotometer (SoloVPE). UV-Vis spectrophotometer is commonly used for quantification of proteins or peptides in solution. A characteristic UV absorption spectrum around 280 nm is predominately from the aromatic amino acids such as tryptophan (Trp, W) and tyrosine (Tyr, Y). When the molar extinction coefficient of the protein or peptide is known, the Beer-Lambert law is used to accurately quantitate amount of protein or peptide by UV absorbance, assuming the molecule contains no UV-absorbing non-proteinaceous components such as bound nucleotide cofactors, heme, or iron-sulfur centers. Compound 1 has tyrosine amino acid residues at positions 10 and 13 and has a tryptophan amino acid residue at position 25 and has an extinction coefficient of 1.86 mL·mg^−1·cm^−1 (as calculated by the Pace Method). Measuring the peptide concentration at different pH conditions by this method is appropriate for Compound 1.

[2] = Effect of antioxidants: chemical stability by RP-HPLC (total impurities, Trp oxidation); conditions: refrigerated condition
Protocol: Solutions were filtered through […] PVDF filters. In a laminar flow hood, the solutions were filled into glass vials. Vials were capped, and stored at 5° C., 25° C. and 30° C. Four formulations comprising Compound 1 were prepared to evaluate the stabilization efficacy of antioxidants, namely, EDTA, citrate and methionine. […] Subsequently, a fifth sample containing higher concentration of methionine (100 mM vs. 10 mM) was prepared to evaluate the effect of methionine concentration (Table 15, Lot No. 26). Samples were prepared, and stored at 5° C., 25° C. and 30° C. for up to 3 months. At appropriate times, stability-indicating assays were performed to assess the physical and chemical stability.
At 25° C. and 30° C., there are significant differences in stabilization efficacy.

[3] = Solution formulation feasibility study: covalent aggregates by SEC; conditions: pH values of 7.0-8.5
Protocol: Solutions were filtered through […] PVDF filters. In a laminar flow hood, the solutions were filled into glass vials. Vials were capped, and stored at 5° C., 25° C. and 30° C. Samples were withdrawn and submitted for testing as follows: (a) initial testing; (b) two weeks; and (c) one month. The formation of covalent aggregates was measured by size-exclusion chromatography (SEC).

SMILES: CC(C)C[C@H](NC(=O)[C@H](CC(C)C)NC(=O)[C@H](Cc1c[nH]c2ccccc12)NC(=O)[C@H](CCC(=O)O)NC(=O)[C@@H](NC(=O)[C@H](Cc1ccccc1)NC(=O)[C@H](CCC(=O)O)NC(=O)[C@H](CCCCNC(=O)COCCOCCNC(=O)COCCOCCNC(=O)CC[C@H](NC(=O)CCCCCCCCCCCCCCCCCCC(=O)O)C(=O)O)NC(=O)[C@H](C)NC(=O)[C@H](CCCCN)NC(=O)[C@H](CCCCN)NC(=O)[C@H](CCC(=O)O)NC(=O)[C@H](CC(=O)O)NC(=O)[C@H](CC(C)C)NC(=O)[C@H](Cc1ccc(O)cc1)NC(=O)[C@H](CCCCN)NC(=O)[C@H](CO)NC(=O)[C@H](Cc1ccc(O)cc1)NC(=O)[C@H](CC(=O)O)NC(=O)[C@H](CO)NC(=O)[C@@H](NC(=O)[C@H](Cc1ccccc1)NC(=O)[C@@H](NC(=O)CNC(=O)[C@H](CCC(N)=O)NC(=O)C(C)(C)NC(=O)[C@@H](N)Cc1c[nH]cn1)[C@@H](C)O)[C@@H](C)O)C(C)C)C(=O)N[C@@H](CCC(=O)O)C(=O)NCC(=O)NCC(=O)N1CCC[C@H]1C(=O)N[C@@H](CO)C(=O)N[C@@H](CO)C(=O)NCC(N)=O [Compound 1]
- solubility ([1]; 10 mM tris buffer with 0.05% EDTA, aqueous buffer, Solution pH 6.16, 10 mM tris and 0.05% EDTA, 25° C., read-out: Compound 1 concentration in solution): 14.5 mg/mL (≈ 3.19 mM)
- solubility ([1]; 10 mM tris buffer with 0.05% EDTA, aqueous buffer, Solution pH 6.84, 10 mM tris and 0.05% EDTA, 25° C., read-out: Compound 1 concentration in solution): 44.6 mg/mL (≈ 9.76 mM)
- Compound 1 concentration in solution ([1]; Solution pH 5.31, 10 mM tris and 0.05% EDTA, 25° C.): 0.00 mg/mL
- solubility ([1]; lower pH values (e.g. pH 5.0 to 6.5)): sub-optimal solubility
- solubility (change with pH) ([1]; pH increased from 5.3 to 6.8): increased significantly
- solubility by extrapolation of the data ([1]; pH values of 7.0 and above): higher
- chemical degradation by RP-HPLC [2]: not substantial
- stability in certain formulations [3]: sub-optimal stability
